These compounds were tested on Human peripheral blood mononuclear cells (PBMCs) as Responder cells, RPMI 1788 Stimulator cells (assay: Mixed Lymphocyte Reaction (MLR) test). Settings: Homo sapiens, RPMI-1788, lowest concentration giving 50% inhibition of the MLR; 6 days coculture, 3H-thymidine incorporation.
Assay type: cell-based
Method in brief: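 Proliferation was read as cpm after a 1 μCi ^3H-thymidine pulse on day 5 and harvest 18 h later, then expressed as % inhibition relative to an MLR without compound. The 6-day triplicate cocultures combined 0.12×10^6 Ficoll-isolated human PBMCs with 0.045×10^6 mitomycin C-inactivated RPMI 1788 cells in RPMI 1640 with 10% FCS.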

SMILES | IC50
CN(C(=O)CN1CCN(c2nc(N)nc3[nH]c(-c4ccc(F)cc4)nc23)CC1)c1ccccc1 [Example 413, 2-(4-(2-amino-8-(4-fluorophenyl)-9H-purin-6-yl)piperazin-1-yl)-N-methyl-N-phenylacetamide] | > 10 µM
Nc1nc(N2CCN(C(=O)COc3ccc(Cl)cc3)CC2)c2nc(-c3ccccc3)sc2n1 [Example 215, 1-(4-(5-amino-2-phenylthiazolo[5,4-d]pyrimidin-7-yl)piperazin-1-yl)-2-(4-chlorophenoxy)ethanone] | 0.116 µM
Nc1nc(N2CCN(CCOc3ccccc3)CC2)c2cc(-c3ccccc3)sc2n1 [Example 337, 4-(4-(2-phenoxyethyl)piperazin-1-yl)-6-phenylthieno[2,3-d]pyrimidin-2-amine] | 9.64 µM
Nc1nc(NC2CCCN(C(=O)OCc3ccccc3)C2)c2nc(CCc3ccc(F)cc3)sc2n1 (stereo not drawn) [Example 145, 5-amino-2-[2-(4-fluorophenyl)ethyl]-7-(1-benzyloxycarbonylpiperidin-3-ylamino)-thiazolo[5,4-d]pyrimidine] | 4.35 µM
Nc1nc(N2CCN(C(=O)COc3ccc(Cl)cc3)CC2)c2nc(-c3ccncc3)sc2n1 [Example 281, 1-(4-(5-amino-2-(pyridin-4-yl)thiazolo[5,4-d]pyrimidin-7-yl)piperazin-1-yl)-2-(4-chlorophenoxy)ethanone] | 0.041 µM
Nc1nc(N2CCN(C(=O)COc3ccc(Cl)cc3)CC2)c2ccsc2n1 [Example 351, 1-(4-(2-aminothieno[2,3-d]pyrimidin-4-yl)piperazin-1-yl)-2-(4-chlorophenoxy)ethanone] | 1.23 µM
CC(=O)N1CCN(c2nc(N)nc3[nH]c(-c4ccc(F)cc4)nc23)CC1 [Example 408, 1-(4-(2-amino-8-(4-fluorophenyl)-9H-purin-6-yl)piperazin-1-yl)ethanone] | > 10 µM
Cc1nc(N2CCN(C(=O)COc3ccc(Cl)cc3)CC2)c2cc(-c3ccc(F)cc3)sc2n1 [Example 325, 2-(4-chlorophenoxy)-1-(4-(6-(4-fluorophenyl)-2-methylthieno[2,3-d]pyrimidin-4-yl)piperazin-1-yl)ethanone] | 3.39 µM
Cc1cccc(OCC(=O)N2CCN(c3nc(N)nc4sc(-c5ccc(F)cc5)nc34)CC2)c1 [Example 211, 1-(4-(5-amino-2-(4-fluorophenyl)thiazolo[5,4-d]pyrimidin-7-yl)piperazin-1-yl)-2-(m-tolyloxy)ethanone] | 0.052 µM
Nc1nc(N2CCN(Cc3ccccc3)CC2)c2nc(-c3ccc(F)cc3)sc2n1 [Example 39, 7-(4-benzylpiperazin-1-yl)-2-(4-fluorophenyl)thiazolo[5,4-d]pyrimidin-5-amine] | > 10 µM
COc1ccccc1NC(=O)N1CCN(c2nc(N)nc3sc(-c4ccc(F)cc4)nc23)CC1 [Example 219, 4-(5-amino-2-(4-fluorophenyl)thiazolo[5,4-d]pyrimidin-7-yl)-N-(2-methoxyphenyl)piperazine-1-carboxamide] | 0.323 µM
COc1ccc(OCC(=O)N2CCN(c3nc(N)nc4sc(CCc5ccc(OC)c(OC)c5)nc34)CC2)cc1 [Example 257, 1-(4-(5-amino-2-(3,4-dimethoxyphenethyl)thiazolo[5,4-d]pyrimidin-7-yl)piperazin-1-yl)-2-(4-methoxyphenoxy)ethanone] | 1.14 µM
Cc1cccc(NC(=O)N2CCN(c3nc(N)nc4sc(-c5cccnc5)nc34)CC2)c1 [Example 276, 4-(5-amino-2-(pyridin-3-yl)thiazolo[5,4-d]pyrimidin-7-yl)-N-m-tolylpiperazine-1-carboxamide] | 0.001 µM
Nc1nc(N2CCN(C(=O)CCc3ccccc3)CC2)c2nc(-c3ccc(F)cc3)[nH]c2n1 [Example 438, 1-(4-(2-amino-8-(4-fluorophenyl)-9H-purin-6-yl)piperazin-1-yl)-3-phenylpropan-1-one] | 2.58 µM
COc1ccc(OCC(=O)N2CCN(c3nc(N)nc4sc(CCc5ccc(Br)cc5)nc34)CC2)cc1 [Example 298, 1-(4-(5-amino-2-(4-bromophenethyl)thiazolo[5,4-d]pyrimidin-7-yl)piperazin-1-yl)-2-(4-methoxyphenoxy)ethanone] | 1.19 µM
